# Literature values as cited in PMC6311893, “Computational prediction of plasma protein binding of cyclic peptides from small molecule experimental data using sparse modeling techniques” (BMC Bioinformatics, 2018).
# Like-named read-outs stand apart in the source and are kept apart here.
# Tested on: plasma protein
# Conditions: cited from earlier work
# [1] = fraction bound to plasma protein, small molecule dataset, sheet 1-SM (Set Dte = test, Dtr = training), ref Ingle et al.
# [2] = fraction bound to plasma protein, small molecule dataset, sheet 1-SM, ref Ingle et al.
# [3] = fraction bound to plasma protein, small molecule dataset, sheet 1-SM, Set Dtr, ref Ingle et al.
compound,measurement,setting,value
CCOC(=O)[C@H](CCc1ccccc1)N[C@H]1CCCN2CCC[C@@H](C(=O)O)N2C1=O [cilazapril],PPB (fb),[1],0.25
Cc1cnc(C(=O)O)c[n+]1[O-] [acipimox],PPB (fb),[1],0.02
COC(C(=O)NC1C(=O)N2C1SC(C)(C)C2C(=O)O)c1cccc(Cl)c1 (centres unmarked) [penicillin40],PPB (fb),[2],0.83
COC(C(=O)NC1C(=O)N2C1SC(C)(C)C2C(=O)O)c1c(Cl)cccc1Cl (centres unmarked) [penicillin41],PPB (fb),[2],0.84
CC(C)Nc1cccnc1N1CCN(C(=O)c2cc3cc(NS(C)(=O)=O)ccc3[nH]2)CC1 [delavirdine],PPB (fb),[1],0.98
CN(CCCN1c2ccccc2CCc2ccccc21)CC(=O)c1ccc(Cl)cc1 [lofepramine],PPB (fb),[2],0.99
CCCCCCCCCCC[C@@H](C[C@@H]1OC(=O)[C@H]1CCCCCC)OC(=O)[C@H](CC(C)C)NC=O [orlistat],PPB (fb),[2],0.99
Cc1onc(-c2c(Cl)cccc2Cl)c1C(=O)N[C@@H]1C(=O)N2[C@@H]1SC(C)(C)[C@@H]2C(=O)O [Dicloxacillin],PPB (fb),[3],0.96
c1ccc2c(c1)Sc1ccccc1N2CC1CN2CCC1CC2 (centres unmarked) [mequitazine],PPB (fb),[2],0.9
CC(C(N)=O)c1ccc(OS(=O)(=O)C(F)(F)F)cc1 (centres unmarked) [JMC_03],PPB (fb),[2],0.92
CCOC(=O)/C=C(C)/C=C/C=C(C)/C=C/c1c(C)cc(OC)c(C)c1C [etretinate],PPB (fb),[1],0.99
CC1(C)S[C@@H]2[C@H](NC(=O)[C@H](C(=O)O)c3ccsc3)C(=O)N2[C@H]1C(=O)O [Ticarcillin],PPB (fb),[2],0.51
O=c1[nH]c2ccccc2n1CCCN1CCN(C(c2ccccc2)c2ccccc2)CC1 [oxatomide],PPB (fb),[2],0.91
Nc1nc2c(c(=O)[nH]1)N(C=O)C(CNc1ccc(C(=O)N[C@@H](CCC(=O)O)C(=O)O)cc1)CN2 (some centres unmarked) [leucovorin],PPB (fb),[2],0.91
nitazoxanide,PPB (fb),plasma,0.99
CO/N=C(\C(=O)N[C@@H]1C(=O)N2C(C(=O)O)=C(COC(N)=O)CS[C@H]12)c1ccco1 [Cefuroxime],PPB (fb),[3],0.32
O=c1[nH]cnc2c1ncn2[C@H]1CC[C@@H](CO)O1 [Didanosine],PPB (fb),[3],0.04
O=C1CN=C(c2ccccn2)c2cc(Br)ccc2N1 [Bromazepam],PPB (fb),plasma,0.61
Oc1c(Cl)c(Cl)c(Cl)c(Cl)c1Cl [pentachlorophenol],PPB (fb),plasma,0.99
COc1ccc(NS(=O)(=O)c2ccc(N)cc2)nn1 [sulfamethoxypyridazine],PPB (fb),[1],0.75
CC(C)(C)N1CCC(c2ccccc2)(c2ccccc2)CC1 [budipine],PPB (fb),[1],0.96
COc1ccc(/C=C\c2cc(OC)c(OC)c(OC)c2)cc1OP(=O)(O)O [Combretastatin A4 phosphate],PPB (fb),,0.77
C=CCOc1ccccc1OCC(O)CNC(C)C (centres unmarked) [oxprenolol],PPB (fb),[1],0.77
demeclocycline,PPB (fb),plasma,0.54
Cefodizime,PPB (fb),plasma,0.81
C#C[C@]1(O)C=C[C@H]2[C@@H]3CCC4=CC(=O)CC[C@@H]4[C@H]3CC[C@@]21CC [Gestodene],PPB (fb),[3],0.98
CCCCNc1ccc(C(=O)OCCN(C)C)cc1 [tetracaine],PPB (fb),[2],0.85
O=C1NC(=O)C(c2ccccc2)(c2ccccc2)N1 [phenytoin],PPB (fb),[2],0.91
CCCC(=O)N1CCCN(c2nc(N)c3cc(OC)c(OC)cc3n2)CC1 [Bunazosin],PPB (fb),[1],0.95
O=C1CCc2cc(OCCCCc3nnnn3C3CCCCC3)ccc2N1 [cilostazol],PPB (fb),[1],0.96
COc1nc(C)nc(Cl)c1N=C1NCCN1 [Moxonidine],PPB (fb),[3],0.06
Cc1ncc2c(c1O)COC2c1ccc(Cl)cc1 (centres unmarked) [cicletanine],PPB (fb),[1],0.93
Iloprost,PPB (fb),plasma,0.6
CC(C(=O)NCCN1CCCC1)c1ccc(OS(=O)(=O)C(F)(F)F)cc1 (centres unmarked) [JMC_04],PPB (fb),[2],0.7
COc1cc2c(cc1O)CCNC21CSC2c3c(OC(C)=O)c(C)c4c(c3C(COC1=O)N1C(O)C3Cc5cc(C)c(OC)c(O)c5C(C21)N3C)OCO4 (centres unmarked) [Trabectedin (ET-743__ Yondelis)],PPB (fb),[3],0.94
CN(C)CCc1c[nH]c2ccc(CS(=O)(=O)N3CCCC3)cc12 [Almotriptan],PPB (fb),[3],0.37
CCC1(c2ccccc2)NC(=O)N(C)C1=O (centres unmarked) [mephenytoin],PPB (fb),[1],0.4
CC(CN(C)C)CN1c2ccccc2Sc2ccccc21 (centres unmarked) [trimeprazine],PPB (fb),[3],0.85
CC[C@H]1OC(=O)[C@H](C)[C@@H](O[C@H]2C[C@@](C)(OC)[C@@H](O)[C@H](C)O2)[C@H](C)[C@@H](O[C@@H]2O[C@H](C)C[C@H](N(C)C)[C@H]2O)[C@](C)(O)C[C@@H](C)C(=O)[C@H](C)[C@@H](O)[C@]1(C)O [Erythromycin],PPB (fb),[3],0.86
C[C@]12CC[C@H](O)C[C@H]1CC[C@@H]1[C@@H]2CC[C@]2(C)[C@@H](C3=CC(=O)OC3)CC[C@]12O [Digitoxigenin],PPB (fb),plasma,0.93
COc1ccc2c(C(=O)c3ccc(Cl)cc3)c(C)n(CC(=O)O)c2c1 [Clometacin],PPB (fb),plasma,0.99
CC(C(=O)O)c1ccc(C(=O)c2ccccc2)s1 (centres unmarked) [tiaprofenic acid],PPB (fb),[2],0.98
CN1Cc2c(N)cccc2C(c2ccccc2)C1 (centres unmarked) [Nomifensine],PPB (fb),[3],0.63
NS(=O)(=O)c1cc2c(cc1C(F)(F)F)NCNS2(=O)=O [hydroflumethiazide],PPB (fb),[2],0.75
CC(C)Cc1ccc(C(C)C(=O)NC(C)C(=O)O)cc1 (centres unmarked) [JMC_09],PPB (fb),[1],0.96
CO[C@H]1C[C@@H]2CC[C@@H](C)[C@@](O)(O2)C(=O)C(=O)N2CCCC[C@H]2C(=O)O[C@H]([C@H](C)C[C@@H]2CC[C@@H](O)[C@H](OC)C2)CC(=O)[C@H](C)/C=C(\C)[C@@H](O)[C@@H](OC)C(=O)[C@H](C)C[C@H](C)/C=C/C=C/C=C/1C [sirolimus],PPB (fb),[2],0.92
CC(=O)Nc1nnc(S(N)(=O)=O)s1 [Acetazolamide],PPB (fb),[3],0.92
Oc1ccc2c(c1)[C@@]13CCCC[C@@]1(O)[C@@H](C2)N(CC1CCC1)CC3 [Butorphanol],PPB (fb),plasma,0.81
O=C1C(CC[S+]([O-])c2ccccc2)C(=O)N(c2ccccc2)N1c1ccccc1 (centres unmarked) [Sulfinpyrazone],PPB (fb),[2],0.98
O=C(O)c1cn(-c2cccc(F)c2)c2cc(N3CCNCC3)c(F)cc2c1=O [2b(m-F)],PPB (fb),[1],0.51
O=C(O)c1cccnc1 [niacin],PPB (fb),[2],0.22
CC(C(=O)O)c1ccc2oc(-c3ccc(Cl)cc3)nc2c1 (centres unmarked) [benoxaprofen],PPB (fb),[1],0.99
CN[C@@H]1[C@@H](O)[C@@H](O[C@@H]2[C@@H](O)[C@H](O[C@H]3OC(CN)=CC[C@H]3N)[C@@H](N)C[C@H]2N)OC[C@]1(C)O [Sisomicin],PPB (fb),[2],0.85
Tolcapone,PPB (fb),plasma,0.99
ceftibuten,PPB (fb),plasma,0.65
OCCN1CCN(CCCN2c3ccccc3Sc3ccc(C(F)(F)F)cc32)CC1 [fluphenazine],PPB (fb),[2],0.95
